Where two headings read alike, the source gives them in different places.
What was measured:
human NPR1 = biological target: T1, human NPR1 (Homo sapiens, UniProt P16066); assay: Cellular cGMP production assay, human NPR1 expressing CHO-K1 cells (CisBio HTRF); format: cell-based; conditions: for AC50: cGMP production, 30 min at 37° C., 12-point dose-response from 30 μM; for Human NPR1 Amax (% of ANP): maximum cGMP production as percentage of the maximum cGMP produced with ANP
T1 construct: host or cells: CHO-K1
T1 sequence (P16066 33-1061): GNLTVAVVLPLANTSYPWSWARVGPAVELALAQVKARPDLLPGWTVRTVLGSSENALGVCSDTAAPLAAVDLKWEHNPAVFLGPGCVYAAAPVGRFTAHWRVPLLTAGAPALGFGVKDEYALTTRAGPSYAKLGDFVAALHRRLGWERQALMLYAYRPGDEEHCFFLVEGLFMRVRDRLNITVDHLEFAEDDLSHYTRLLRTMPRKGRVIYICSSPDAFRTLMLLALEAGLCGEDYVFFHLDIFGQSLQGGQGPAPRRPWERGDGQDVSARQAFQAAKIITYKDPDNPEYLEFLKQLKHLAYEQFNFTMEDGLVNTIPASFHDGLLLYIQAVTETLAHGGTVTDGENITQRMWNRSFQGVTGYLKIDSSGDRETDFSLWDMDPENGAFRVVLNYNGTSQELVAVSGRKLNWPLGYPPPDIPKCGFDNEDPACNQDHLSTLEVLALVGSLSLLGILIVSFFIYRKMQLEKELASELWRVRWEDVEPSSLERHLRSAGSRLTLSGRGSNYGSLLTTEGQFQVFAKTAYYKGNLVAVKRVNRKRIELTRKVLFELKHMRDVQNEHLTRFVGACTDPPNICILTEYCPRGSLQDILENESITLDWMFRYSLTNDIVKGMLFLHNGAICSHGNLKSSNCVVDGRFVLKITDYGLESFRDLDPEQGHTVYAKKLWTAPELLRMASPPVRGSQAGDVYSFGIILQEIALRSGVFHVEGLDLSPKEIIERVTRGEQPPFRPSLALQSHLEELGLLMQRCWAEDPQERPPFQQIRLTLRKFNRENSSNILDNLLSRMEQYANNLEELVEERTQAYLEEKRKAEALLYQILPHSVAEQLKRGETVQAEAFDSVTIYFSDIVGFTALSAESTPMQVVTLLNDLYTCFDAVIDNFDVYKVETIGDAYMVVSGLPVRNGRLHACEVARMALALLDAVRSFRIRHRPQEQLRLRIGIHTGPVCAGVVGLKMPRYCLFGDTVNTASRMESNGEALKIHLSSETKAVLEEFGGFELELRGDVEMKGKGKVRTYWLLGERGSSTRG
In short: (§1)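 Step 1: add buffer (PBS, 0.1% BSA, 1 mM IBMX) and compounds, 3-fold series from 30 μM top. Step 2: incubate 30 min, 37 °C. Step 3: lyse; HTRF reagents 1 h at RT.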

monkey NPR1 = monkey NPR1 (Macaca fascicularis, UniProt A0A7N9DBT9); assay: Cellular cGMP production assay, monkey NPR1 expressing CHO-K1 cells (CisBio HTRF); format: cell-based; conditions: for Monkey NPR1 Amax (% of ANP): maximum cGMP production as percentage of the maximum cGMP produced with ANP
In short: as §1

[1] = cGMP production, monkey NPR1 CHO-K1 cells, 30 min at 37° C., 12-point dose-response from 30 μM, read-out: Monkey NPR1 AC50

monkey NPR1, sequence (A0A7N9DBT9 entry or part of it): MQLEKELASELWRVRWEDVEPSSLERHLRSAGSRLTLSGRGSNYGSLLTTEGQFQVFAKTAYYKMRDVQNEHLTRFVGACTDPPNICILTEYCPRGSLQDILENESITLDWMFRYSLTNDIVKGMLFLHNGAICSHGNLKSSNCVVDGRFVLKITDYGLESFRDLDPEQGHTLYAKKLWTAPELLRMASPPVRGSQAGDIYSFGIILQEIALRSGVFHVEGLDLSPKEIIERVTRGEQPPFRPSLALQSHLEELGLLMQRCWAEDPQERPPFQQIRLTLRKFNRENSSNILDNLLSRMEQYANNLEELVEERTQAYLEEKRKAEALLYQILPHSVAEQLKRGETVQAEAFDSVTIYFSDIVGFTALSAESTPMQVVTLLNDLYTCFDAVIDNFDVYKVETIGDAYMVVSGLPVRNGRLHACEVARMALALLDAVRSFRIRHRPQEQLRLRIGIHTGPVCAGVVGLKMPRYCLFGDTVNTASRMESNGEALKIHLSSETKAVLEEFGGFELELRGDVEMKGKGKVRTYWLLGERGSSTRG

| Structure (SMILES) | AC50 (human NPR1) | Human NPR1 Amax (% of ANP) (human NPR1) | AC50 (monkey NPR1; [1]) | Monkey NPR1 Amax (% of ANP) (monkey NPR1; monkey NPR1 CHO-K1 cells) | AC50 (monkey NPR1) |
| --- | --- | --- | --- | --- | --- |
| CC[C@H]([C@H]1CC[C@H](C(=O)O)CC1)N(C)c1nc2c(c(N[C@@H](CN3CCC[C@H](O)C3)c3cnn(C)c3)n1)C[C@H](c1ccccc1)CC2 [Compound 129, (1R,4r)-4-((R)-1-(((R)-4-(((R)-2-((S)-3-hydroxypiperidin-1-yl)-1-(1-methyl-1H-pyrazol-4-yl)ethyl)amino)-6-phenyl-5,6,7,8-tetrahydroquinazolin-2-yl)(methyl)amino)propyl)cyclohexane-1-carboxylic acid] | 646 nM | 93.751 % of ANP | 362 nM | 91.227 % of ANP |  |
| CC[C@@H](Nc1nc2c(c(N[C@@H](CN3C4CCCC3CCC4)c3cnn(C(C)C)c3)n1)C[C@H](c1ccccc1)CC2)[C@H]1CC[C@H](C(=O)O)CC1 [Compound 132, (1R,4r)-4-((R)-1-(((R)-4-(((R)-2-((1S,5S)-9-azabicyclo[3.3.1]nonan-9-yl)-1-(1-isopropyl-1H-pyrazol-4-yl)ethyl)amino)-6-phenyl-5,6,7,8-tetrahydroquinazolin-2-yl)amino)propyl)cyclohexane-1-carboxylic acid] | 757 nM | 97.440 % of ANP |  | 103.231 % of ANP | 620 nM |
| CC[C@H]([C@H]1CC[C@H](C(=O)O)CC1)N(C)c1nc2c(c(N[C@@H](CN3CCC[C@H](C)C3)c3cnn(C)c3)n1)C[C@H](c1ccccc1F)CC2 [Compound 48, (1R,4r)-4-((R)-1-(((R)-6-(2-fluorophenyl)-4-(((R)-1-(1-methyl-1H-pyrazol-4-yl)-2-((S)-3-methylpiperidin-1-yl)ethyl)amino)-5,6,7,8-tetrahydroquinazolin-2-yl)(methyl)amino)propyl)cyclohexane-1-carboxylic acid] | 183 nM | 106.036 % of ANP | 101 nM | 101.062 % of ANP |  |
| CC[C@@H](N(C)c1nc2c(c(N[C@@H](CN3CCC[C@H](C)C3)c3ccnn3C)n1)C[C@H](c1cccc(F)c1)CC2)C12CC(C(=O)O)(C1)C2 [Compound 155, 3-((R)-1-(((R)-6-(3-fluorophenyl)-4-(((S)-1-(1-methyl-1H-pyrazol-5-yl)-2-((S)-3-methylpiperidin-1-yl)ethyl)amino)-5,6,7,8-tetrahydroquinazolin-2-yl)(methyl)amino)propyl)bicyclo[1.1.1]pentane-1-carboxylic acid] | 1290 nM | 97.313 % of ANP | 648 nM | 95.840 % of ANP |  |
| CC[C@@H](Nc1nc2c(c(N[C@@H](CN3CCC(C)CC3)c3cnn(C)c3)n1)C[C@H](c1ccccc1)CC2)[C@H]1CC[C@H](C(=O)O)CC1 [Compound 121, (1R,4r)-4-((R)-1-(((R)-4-(((R)-1-(1-methyl-1H-pyrazol-4-yl)-2-(4-methylpiperidin-1-yl)ethyl)amino)-6-phenyl-5,6,7,8-tetrahydroquinazolin-2-yl)amino)propyl)cyclohexane-1-carboxylic acid] | 570 nM | 100.330 % of ANP | 382 nM | 102.117 % of ANP |  |
| CC[C@@H](N(C)c1nc2c(c(N[C@@H](CN3CCC[C@H](C)C3)c3cnn(CC)c3)n1)C[C@H](c1cccc(F)c1)CC2)C12CC(C(=O)O)(C1)C2 [Compound 13, 3-((R)-1-(((R)-4-(((R)-1-(1-ethyl-1H-pyrazol-4-yl)-2-((S)-3-methylpiperidin-1-yl)ethyl)amino)-6-(3-fluorophenyl)-5,6,7,8-tetrahydroquinazolin-2-yl)(methyl)amino)propyl)bicyclo[1.1.1]pentane-1-carboxylic acid] | 94 nM | 99.405 % of ANP | 64 nM | 100.145 % of ANP |  |
| CC[C@@H](Nc1nc2c(c(N[C@@H](CN3CCC[C@H](C)C3)c3cnn(C)c3)n1)C[C@](C)(c1ccc(F)cc1)CC2)[C@H]1CC[C@H](C(=O)O)CC1 [Compound 5, (1R,4r)-4-((R)-1-(((R)-6-(4-fluorophenyl)-6-methyl-4-(((R)-1-(1-methyl-1H-pyrazol-4-yl)-2-((S)-3-methylpiperidin-1-yl)ethyl)amino)-5,6,7,8-tetrahydroquinazolin-2-yl)amino)propyl)cyclohexane-1-carboxylic acid] | 72 nM | 85.741 % of ANP | 68 nM | 104.503 % of ANP |  |
| CC[C@H]([C@H]1CC[C@H](C(=O)O)CC1)N(C)c1nc2c(c(N[C@@H](CN3C4CCCC3CC4)c3cc(C)n(C)n3)n1)C[C@H](c1cccc(F)c1)CC2 [Compound 88, (1R,4r)-4-((1R)-1-(((6R)-4-(((1S)-2-(8-azabicyclo[3.2.1]octan-8-yl)-1-(1,5-dimethyl-1H-pyrazol-3-yl)ethyl)amino)-6-(3-fluorophenyl)-5,6,7,8-tetrahydroquinazolin-2-yl)(methyl)amino)propyl)cyclohexane-1-carboxylic acid] | 303 nM | 98.817 % of ANP |  | 94.699 % of ANP | 255 nM |
| CC[C@@H](N(C)c1nc2c(c(N[C@@H](CN3CCC[C@H](C)C3)c3cnn(C)c3)n1)C[C@H](c1cccc(F)c1)CC2)C12CC(C(=O)O)(C1)C2 [Compound 9, 3-((R)-1-(((R)-6-(3-fluorophenyl)-4-(((R)-1-(1-methyl-1H-pyrazol-4-yl)-2-((S)-3-methylpiperidin-1-yl)ethyl)amino)-5,6,7,8-tetrahydroquinazolin-2-yl)(methyl)amino)propyl)bicyclo[1.1.1]pentane-1-carboxylic acid] | 88 nM | 95.056 % of ANP | 45 nM | 95.667 % of ANP |  |
| CC[C@@H](Nc1nc2c(c(N[C@@H](CNC3CCOCC3)c3ccccc3)n1)C[C@H](c1ccccc1)CC2)[C@H]1CC[C@H](C(=O)O)CC1 [Compound 166, (1R,4r)-4-((R)-1-(((R)-6-phenyl-4-(((R)-1-phenyl-2-((tetrahydro-2H-pyran-4-yl)amino)ethyl)amino)-5,6,7,8-tetrahydroquinazolin-2-yl)amino)propyl)cyclohexane-1-carboxylic acid] | 2000 nM | 101.913 % of ANP | 1980 nM | 96.913 % of ANP |  |
| CC(Nc1nc2c(c(N[C@@H](CN3CCCC3)c3ccccc3)n1)CC(c1ccccc1)CC2)[C@H]1CC[C@H](C(=O)O)CC1 (stereo partly drawn) [Compound 158, (1S,4r)-4-((1S)-1-((6-phenyl-4-(((R)-1-phenyl-2-(pyrrolidin-1-yl)ethyl)amino)-5,6,7,8-tetrahydroquinazolin-2-yl)amino)ethyl)cyclohexane-1-carboxylic acid] | 1430 nM | 109.837 % of ANP | 1270 nM | 165.777 % of ANP |  |
| CC[C@@H](Nc1nc2c(c(N[C@@H](CN3C[C@H](C)C[C@H](C)C3)c3cnn(C)c3)n1)C[C@H](c1ccccc1)CC2)[C@H]1CC[C@H](C(=O)O)CC1 [Compound 61, (1R,4r)-4-((R)-1-(((R)-4-(((R)-2-((3S,5R)-3,5-dimethylpiperidin-1-yl)-1-(1-methyl-1H-pyrazol-4-yl)ethyl)amino)-6-phenyl-5,6,7,8-tetrahydroquinazolin-2-yl)amino)propyl)cyclohexane-1-carboxylic acid] | 207 nM | 104.236 % of ANP | 122 nM | 102.127 % of ANP |  |
| CC[C@H]([C@H]1CC[C@H](C(=O)O)CC1)N(C)c1nc2c(c(N[C@@H](CN3CCC[C@H](C)C3)c3ccc(=O)n(C)c3)n1)C[C@H](c1cccc(F)c1)CC2 [Compound 53, (1R,4r)-4-((R)-1-(((R)-6-(3-fluorophenyl)-4-(((R)-1-(1-methyl-6-oxo-1,6-dihydropyridin-3-yl)-2-((S)-3-methylpiperidin-1-yl)ethyl)amino)-5,6,7,8-tetrahydroquinazolin-2-yl)(methyl)amino)propyl)cyclohexane-1-carboxylic acid] | 190 nM | 101.185 % of ANP | 101 nM | 101.261 % of ANP |  |

Reference: patent publication US12129246B1, “Hydroquinazoline derivatives for the treatment of a disease or disorder” (Novartis AG, priority 2023, dated 2024)
